Measurements published in US20110165115A1, “SYNERGISTIC ATTRACTANTS FOR PESTIFEROUS SOCIAL INSECTS” (STERLING INTERNATIONAL INC., priority 2010, published 2011).

Legend:
D. maculata = assay: Field trapping Experiment 1, Rescue W•H•Y traps; assay type: in vivo, Dolichovespula maculata; details: Exp 1; HIPV added to WHY attractant in the top chamber, or WHY alone
Experimental: Three field trapping experiments were carried out during late July to early August 2009, in residential and woody areas around Spokane, Wash., USA, using the newly marketed Rescue® W•H•Y traps (www.rescue.com). As used herein, the W•H•Y trap is a trap in accordance with the description of United States Patent Application Publication No. 2009/0151228. The W•H•Y trap has a top chamber and a bottom chamber. The top chamber is baited with two attractants—one of which is a solid contained in a vial (2-methyl-1-butanol) and the other a liquid mixed with water (acetic acid), herein referred to as the W•H•Y top attractant. The bottom chamber is baited with a liquid attractant (heptyl butyrate) poured onto a cotton pad, herein referred to as the W•H•Y bottom attractant. Separation of the top and bottom attractants (otherwise antagonistic to each other when released from the same chamber) in two chambers was a design feature of this trap and creates two focal attraction sources from one trap for different species of wasps, hornets, and yellowjackets. Traps were hung 1.5-2.0 m above the ground on either the fence or tree branches ca. 5 m apart within each trap line. For each trapping experiment, six sets of traps were deployed with their initial trap positions within each set being randomized. To minimize positional effects and obtain more replications, wasp collections and trap re-randomization were carried out when ≧10-20 wasps were caught in the best trap. Each replicate lasted several days depending on wasp flight activity. Captured wasps were removed from the traps and kept in the zip-bags before taking back to the laboratory for recording of the species, gender status, and catch.
Experiment 1 (Jul. 22-30, 2009) tested ten synthetic HIPV candidates [(E)-2-hexenal, (Z)-3-hexen-1-ol, (Z)-3-hexenyl acetate, cis-ocimene, linalool, methyl salicylate, geranyl acetate, trans-β-caryophyllene, trans-β-farnesene and (E)-4,8-dimethyl-1,3,7-nonatriene], including several paper wasp EAD-active compounds (see FIG. 2 for details), to determine their potential synergistic effect on the Rescue® W•H•Y trap attractants to paper wasps, yellowjackets, and hornets. Experiment 2 (Aug. 5-13, 2009) tested behavioral responses of the paper wasps and yellowjackets to the Rescue® W•H•Y trap attractants (top attractants only) and its combination with (E)-4,8-dimethyl-1,3,7-nonatriene, one of the EAD-active and behaviorally significant HIPVs, in a dose-response fashion. Experiment 3 (Aug. 5-13, 2009) was conducted to determine the potential behavioral activity of different doses of (E)-4,8-dimethyl-1,3,7-nonatriene alone. The individual (or different doses) HIPVs were loaded into either polyethylene bags or centrifuge tube type of dispensers, and released from the top of the W•H•Y trap chamber. W•H•Y trap attractants (both top and bottom or top only) alone and water (top chamber only) were included in the test as positive and blank controls, respectively. The dispenser types, loading and release rates of the tested semiochemicals are described in Tables 1, 2 and 3.
Trap catch data were converted to proportion (P) of total captured wasps within each replicate. Data were then transformed by arcsin√P to meet the assumptions of normality and homogeneity of variances for ANOVA. Means were compared by ANOVA followed by the Ryan-Einot-Gabriel-Welsh (REGW) multiple Q test (SPSS 16.0 for Windows) at α=0.05.

[1] = test system: Polistes dominulus worker antennae; assay: GC-EAD of cherry branch aeration samples
Experimental: Lapin cherry branches with severely damaged cherries and leaves and undamaged or slightly damaged branches were collected from a cherry orchard at Creston, Canada, on Jul. 29, 2009, and were transported to the Sterling International, Inc. lab (Spokane, Wash.) on the same day and kept at 4° C. before aerations. Headspace volatiles from the cherry branches (damaged or undamaged) were sampled by a battery operated pump and a high density polyacetate oven bag (48.2×59.6 cm Reynolds® Oven Bag; Richmond, Va., USA) enclosure with one activated charcoal filter tube in the air inlet, on Jul. 30, 2009. The volatiles in the enclosure were trapped on one Porapak Q tube (50/80 mesh; 30 mg in Teflon tube: 3 mm×35 mm) for 2.5 hr (airflow 300 ml/min) and extracted with 1 ml redistilled pentane. Aeration samples of the cherry branches (damaged or undamaged/slightly damaged) were injected (3 μl) splitless into a Varian CP-3800 GC equipped with a polar column (HP-INNOWax; 30 m×0.53 mm×1.0 μm film thickness; […] Helium was used as the carrier gas, and the injector and detector temperatures were 250° C. and 300° C., respectively. Column temperature was 50° C. for 1 min, rising to 240° C. at 10° C./min, and then held for 10 min. The outlet for the EAD was held in a humidified air stream flowing at 0.5 m/sec over the antennal preparation. EAD recordings were made using silver wire-glass capillary electrodes filled with Beadle-Ephrussi Ringer on freshly cut antennae. The antennal signals were stored and analyzed on a PC equipped with a serial IDAC interface box and the program EAD ver. 2.5 (Syntech, Hilversum, The Netherlands). […] (See FIG. 2.) The same chemicals were also tested on beneficial insect antennae from Chrysopa oculata, Myrmeleon crudelis, Podisus maculiventris, and Hippodarnia convergens. (See […] active peaks in the aeration samples were identified by GC-MS on an HP 6890 GC series coupled with an HP 5973 Mass Selective Detector using the same type of GC column and conditions as described above. Compounds were identified by comparison of retention times with those of authentic standards and with mass spectra of standards.

[2] = aeration of severely damaged cherry branches, at current release rates
[3] = aeration of undamaged or slightly damaged cherry branches

SMILES | Total Yellowjacket Catches D. maculata (D. maculata) | EAD response of worker antennae [1, 2] | EAD response of worker antennae [1, 3]
CC/C=C\CCOC(C)=O [Z-3-Hexenyl Acetate, (Z)-3-hexenyl acetate] | 1 | did not elicit significant EAD-responses | strongly responded
C=C/C=C(\C)CCC=C(C)C [(E)-4,8-dimethyl-1,3,7-nonatriene] | 12 | significant EAD response | 
CC/C=C\CCO [Z-3-Hexanol, (Z)-3-hexen-1-ol] | 5 | did not elicit significant EAD-responses | strongly responded
COC(=O)c1ccccc1O [Methyl Salicylate, methyl salicylate] | 1 | did not elicit significant EAD-responses | 
